Numbered stars: 1 amine (or outer) side, 2 acyl side, 3 side chain; on linkers, the order of the positions; unused ones are H or OH. Bridge positions count the residues as written; N and C are the ends. Square brackets hold non-standard residues; d marks the D form. Peptide text beside a SMILES is read from it. * marks the point of attachment. Lys(Me,(CH2)4NMe(CH2)5CO) = CN(CCCCCC(=O)[*:3])CCCCN(C)CCCC[C@H](N[*:1])C(=O)[*:2]; X2 = O=C(Cc1ccc(-c2ccc(CC(=O)[*:2])cc2)cc1)[*:1]; Trp(7-Me) = Cc1cccc2c(C[C@H](N)C(=O)O)c[nH]c12; Sebacoyl = O=C(CCCCCCCCC(=O)[*:2])[*:1]; NH(CH2)9CO = O=C(CCCCCCCCCN[*:1])[*:2]; 2Nal = N[C@@H](Cc1ccc2ccccc2c1)C(=O)O; Suberoyl = O=C(CCCCCCC(=O)[*:2])[*:1]; d2Nal = N[C@H](Cc1ccc2ccccc2c1)C(=O)O; C12 diacid = O=C(O)CCCCCCCCCCC(=O)*; X1 = O=C(CCCCCCCCCCCCCN[*:1])[*:2]; 3Pal = N[C@@H](Cc1cccnc1)C(=O)O; 12Ado = NCCCCCCCCCCCC(=O)O; AEEEA = NCCOCCOCCOCC(=O)O; Aun = NCCCCCCCCCCC(=O)O; Thp = NC1(C(=O)O)CCOCC1; Me2NCH2CH2 = CN(C)CC*; Aib = CC(C)(N)C(=O)O; Aoc = NCCCCCCCC(=O)O; Sar = CNCC(=O)O
Experiments:
[1] = test system: IL-23 induced STAT3 signaling (IL-23 receptor) in HEK-Blue IL-23 cells; assay: Inhibition of IL-23 induced STAT3 signaling in HEK-Blue IL-23 cells, SEAP reporter (Table 9); assay type: cell-based; conditions: human IL23 0.25 ng/ml, overnight, read-out: Inhibition of IL-23 induced pSTAT3 (IC50 nM)
Summary of the method: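 HEK-Blue IL-23 reporter cells (10,000/well) pre-incubated 60 min at 37 °C with serially diluted peptides, then stimulated overnight with human IL-23 at 0.25 ng/ml final. SEAP in supernatant read by QUANTI-Blue, 45 min room temperature, OD 620–655 nm; dose-response curve fitting.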

[2] = Protease stability in simulated intestinal fluids (FaSSIF) (Table 7); assay type: in vitro ADME; conditions: fassif with pancreatin, 37° C.; for remaining at 1 h, 1 µM: 60 min, read-out: Remaining percentage of peptide compound, FaSSIF 60 (min); for remaining at 2 h, 1 µM: 120 min, read-out: Remaining percentage of peptide compound, FaSSIF 120 (min); for remaining at 4 h, 1 µM: 240 min, read-out: Remaining percentage of peptide compound, FaSSIF 240 (min)
Summary of the method: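 1 μM peptide incubated at 37° C in simulated fluid (pancreatin-SIF prepared from pancreatin in SIF concentrate). Samples quenched with acidified ethanol at 0, 60, 120 and 240 min and analysed by LC-MS/MS. Percentage remaining from peak area relative to T0 (100%).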

SMILES | IC50 [1] [nM] | remaining at 1 h, 1 µM [2] [%] | remaining at 2 h, 1 µM [2] [%] | remaining at 4 h, 1 µM [2] [%]
Cc1cccc2c(C[C@@H]3NC(=O)CCCCCCCCCCNC(=O)CC[C@@H](C(=O)N[C@@H](CC(N)=O)C(=O)N[C@@H](Cc4cccnc4)C(=O)N(C)CC(N)=O)NC(=O)C(C)(C)NC(=O)[C@@H](Cc4ccc5ccccc5c4)NC(=O)[C@H](Cc4ccc(OCCN(C)C)cc4)NC(=O)C4(CCOCC4)NC(=O)[C@H](CCC(N)=O)NC3=O)c[nH]c12 [compound 4] ([Aun][Trp(7-Me)]Q[Thp]Y(Me2NCH2CH2)[d2Nal][Aib]EN[3Pal][Sar]-NH2; lactam N-8) | 0.14 | 90 | 87 | 82
CC(=O)NCCCC[C@@H]1NC(=O)[C@H](Cc2c[nH]c3c(C)cccc23)NC(=O)CCCCCN(C)CCCCN(C)CCCC[C@@H](C(=O)N[C@@H](CC(N)=O)C(=O)N[C@@H](Cc2cccnc2)C(=O)N(C)CC(N)=O)NC(=O)C(C)(C)NC(=O)[C@H](Cc2ccc3ccccc3c2)NC(=O)[C@H](Cc2ccc(OCCN(C)C)cc2)NC(=O)C2(CCOCC2)NC1=O [compound 18] ([Trp(7-Me)]K(Ac)[Thp]Y(Me2NCH2CH2)[2Nal][Aib][Lys(Me,(CH2)4NMe(CH2)5CO)]N[3Pal][Sar]-NH2; lactam N-7) | 0.47 | 95 | 88 | 85
Cc1cccc2c(C[C@@H]3NC(=O)CCCCCCCCCCNC(=O)CC[C@@H](C(=O)N[C@@H](CC(N)=O)C(=O)N[C@@H](Cc4cccnc4)C(=O)N(C)CC(N)=O)NC(=O)C(C)(C)NC(=O)[C@H](Cc4ccc5ccccc5c4)NC(=O)[C@H](Cc4ccc(OCCN(C)C)cc4)NC(=O)C4(CCOCC4)NC(=O)[C@H](CC(C)C)NC3=O)c[nH]c12 [compound 7] ([Aun][Trp(7-Me)]L[Thp]Y(Me2NCH2CH2)[2Nal][Aib]EN[3Pal][Sar]-NH2; lactam N-8) | 1.73 | 80 | 81 | 82
Cc1cccc2c(C[C@@H]3NC(=O)CCCCCCCCCCCNC(=O)CC[C@@H](C(=O)N[C@@H](CC(N)=O)C(=O)N[C@@H](Cc4cccnc4)C(=O)N(C)CC(N)=O)NC(=O)C(C)(C)NC(=O)[C@H](Cc4ccc5ccccc5c4)NC(=O)[C@H](Cc4ccc(OCCN(C)C)cc4)NC(=O)C4(CCOCC4)NC(=O)[C@H](CCC(N)=O)NC3=O)c[nH]c12 [compound 2] ([12Ado][Trp(7-Me)]Q[Thp]Y(Me2NCH2CH2)[2Nal][Aib]EN[3Pal][Sar]-NH2; lactam N-8) | 0.28 | 100 | 94 | 94
Cc1cccc2c(C[C@@H]3NC(=O)Cc4ccc(cc4)-c4ccc(cc4)CC(=O)NCCCC[C@@H](C(=O)N[C@@H](CC(N)=O)C(=O)N[C@@H](Cc4cccnc4)C(=O)N(C)CC(N)=O)NC(=O)C(C)(C)NC(=O)[C@H](Cc4ccc5ccccc5c4)NC(=O)[C@H](Cc4ccc(OCCN(C)C)cc4)NC(=O)C4(CCOCC4)NC(=O)[C@H](CCC(N)=O)NC3=O)c[nH]c12 [compound 15] ([Trp(7-Me)]Q[Thp]Y(Me2NCH2CH2)[2Nal][Aib]KN[3Pal][Sar]-NH2; linker N-7 via X2) | 12 | 74 | 63 | 43
Cc1cccc2c(C[C@@H]3NC(=O)CCCCCCCCCCCCCNC(=O)CC[C@@H](C(=O)N[C@@H](CC(N)=O)C(=O)N[C@@H](Cc4cccnc4)C(=O)N(C)CC(N)=O)NC(=O)C(C)(C)NC(=O)[C@H](Cc4ccc5ccccc5c4)NC(=O)[C@H](Cc4ccc(OCCN(C)C)cc4)NC(=O)C4(CCOCC4)NC(=O)[C@H](CCC(N)=O)NC3=O)c[nH]c12 [compound 1] ([X1][Trp(7-Me)]Q[Thp]Y(Me2NCH2CH2)[2Nal][Aib]EN[3Pal][Sar]-NH2; lactam N-8) | 1.14 | 96 | 90 | 90
Cc1cccc2c(C[C@@H]3NC(=O)CCCCCCCCCNC(=O)CC[C@@H](C(=O)N[C@@H](CC(N)=O)C(=O)N[C@@H](Cc4cccnc4)C(=O)N(C)CC(N)=O)NC(=O)C(C)(C)NC(=O)[C@H](Cc4ccc5ccccc5c4)NC(=O)[C@H](Cc4ccc(OCCN(C)C)cc4)NC(=O)C4(CCOCC4)NC(=O)[C@H](CC(C)C)NC3=O)c[nH]c12 [compound 8] ([NH(CH2)9CO][Trp(7-Me)]L[Thp]Y(Me2NCH2CH2)[2Nal][Aib]EN[3Pal][Sar]-NH2; lactam N-8) | 1.85 | 79 | 79 | 72
Cc1cccc2c(C[C@@H]3NC(=O)CCCCCCC(=O)NCCCC[C@@H](C(=O)N[C@@H](CC(N)=O)C(=O)N[C@@H](Cc4cccnc4)C(=O)N(C)CC(N)=O)NC(=O)C(C)(C)NC(=O)[C@H](Cc4ccc5ccccc5c4)NC(=O)[C@H](Cc4ccc(OCCN(C)C)cc4)NC(=O)C4(CCOCC4)NC(=O)[C@H](CCC(N)=O)NC3=O)c[nH]c12 [compound 12] ([Trp(7-Me)]Q[Thp]Y(Me2NCH2CH2)[2Nal][Aib]KN[3Pal][Sar]-NH2; linker N-7 via Suberoyl) | 0.97 | 79 | 77 | 78
CC(=O)NCCCC[C@@H]1NC(=O)[C@H](Cc2c[nH]c3c(C)cccc23)NC(=O)[C@@H](NC(C)=O)CCCCN(C)CCCCN(C)CCCC[C@@H](C(=O)N[C@@H](CC(N)=O)C(=O)N[C@@H](Cc2cccnc2)C(=O)N(C)CC(N)=O)NC(=O)C(C)(C)NC(=O)[C@@H](Cc2ccc3ccccc3c2)NC(=O)[C@H](Cc2ccc(OCCN(C)C)cc2)NC(=O)C2(CCOCC2)NC1=O [compound 13] | 0.17 | 90 | 89 | 88
Cc1cccc2c(C[C@@H]3NC(=O)CCCCCCCCCCC(=O)NCCCC[C@@H](C(=O)N[C@@H](CC(N)=O)C(=O)N[C@@H](Cc4cccnc4)C(=O)N(C)CC(N)=O)NC(=O)C(C)(C)NC(=O)[C@H](Cc4ccc5ccccc5c4)NC(=O)[C@H](Cc4ccc(OCCN(C)C)cc4)NC(=O)C4(CCOCC4)NC(=O)[C@H](CCC(N)=O)NC3=O)c[nH]c12 [compound 10] ([Trp(7-Me)]Q[Thp]Y(Me2NCH2CH2)[2Nal][Aib]KN[3Pal][Sar]-NH2; linker N-7 via C12 diacid) | 0.35 | 79 | 78 | 77
Cc1cccc2c(C[C@@H]3NC(=O)COCCOCCOCCNC(=O)CC[C@@H](C(=O)N[C@@H](CC(N)=O)C(=O)N[C@@H](Cc4cccnc4)C(=O)N(C)CC(N)=O)NC(=O)C(C)(C)NC(=O)[C@H](Cc4ccc5ccccc5c4)NC(=O)[C@H](Cc4ccc(OCCN(C)C)cc4)NC(=O)C4(CCOCC4)NC(=O)[C@H](CCC(N)=O)NC3=O)c[nH]c12 [compound 14] ([AEEEA][Trp(7-Me)]Q[Thp]Y(Me2NCH2CH2)[2Nal][Aib]EN[3Pal][Sar]-NH2; lactam N-8) | 1.21 | 94 | 90 | 88
Cc1cccc2c(C[C@@H]3NC(=O)CCCCCCCCC(=O)NCCCC[C@@H](C(=O)N[C@@H](CC(N)=O)C(=O)N[C@@H](Cc4cccnc4)C(=O)N(C)CC(N)=O)NC(=O)C(C)(C)NC(=O)[C@H](Cc4ccc5ccccc5c4)NC(=O)[C@H](Cc4ccc(OCCN(C)C)cc4)NC(=O)C4(CCOCC4)NC(=O)[C@H](CCC(N)=O)NC3=O)c[nH]c12 [compound 11] ([Trp(7-Me)]Q[Thp]Y(Me2NCH2CH2)[2Nal][Aib]KN[3Pal][Sar]-NH2; linker N-7 via Sebacoyl) | 0.28 | 74 | 73 | 69
Cc1cccc2c(C[C@@H]3NC(=O)CCCCCCCNC(=O)CC[C@@H](C(=O)N[C@@H](CC(N)=O)C(=O)N[C@@H](Cc4cccnc4)C(=O)N(C)CC(N)=O)NC(=O)C(C)(C)NC(=O)[C@H](Cc4ccc5ccccc5c4)NC(=O)[C@H](Cc4ccc(OCCN(C)C)cc4)NC(=O)C4(CCOCC4)NC(=O)[C@H](CC(C)C)NC3=O)c[nH]c12 [compound 9] ([Aoc][Trp(7-Me)]L[Thp]Y(Me2NCH2CH2)[2Nal][Aib]EN[3Pal][Sar]-NH2; lactam N-8) | 10.8 | 74 | 76 | 74

— US20260297129A1, “PEPTIDES AS SELECTIVE IL-23 RECEPTOR INHIBITORS” (SANOFI, priority 2023, published 2026)
